Results on four compounds are retold here after patent US11725217B2, “Methods to enhance myocardial regeneration and/or repair” (Regents of the University of Minnesota, priority 2018, dated 2023).

In experiment [1] the test system is isolated mouse neonatal cardiomyocytes. Description: Proliferation of cultured neonatal (P1) cardiomyocytes (cell number, EdU incorporation, Ki67, FACS). It is filed as cell-based. As to conditions: for EdU+ cardiomyocytes: pan-caspase inhibition experiment, 48 h, SAG with/without pan-caspase inhibition; for Ki67+-Actinin+ cells: versus DMSO control.
Protocol: Immunohistochemistry was performed on cryosections (10 μm thick) using standard procedures (Singh et al., 2012; Singh et al. 2007; Adhikari et al., 2011; Singh et al., 2010). Briefly, sections were rehydrated, permeabilized and blocked with 10% normal donkey serum (NDS), 0.1% Triton X-100 in PBS at room temperature and incubated overnight at 4° C. with primary antibodies: α-actinin (Abeam; 1:300), desmin (Novus biologicals; 1:300), Shh (Santa Cruz Biotechnology; 1:200), endomucin (Abeam; 1:100), SM22 (Abeam; 1:400), α-phospho-Histone H3 (Ser10) (Millipore; 1:100), Ki67 (Abcam; 1:200), PCNA (Santa Cruz Biotechnology; 1:100), Mef2a (Santa Cruz Biotechnology; 1:100), Smoothened (Abcam; 1:200), Nkx 2-5 (Santa Cruz Biotechnology; 1:100) and GFP (ThermoFisher Scientific; 1:300) sera. Sections were rinsed and incubated with combinations of secondary antibodies (1:400) including Alexa 488, Alexa 594, Cy3 and Cy5 (Jackson ImmunoResearch Laboratories). EdU staining was performed using the EdU labeling kit (Life Technologies)
Ventricular cardiomyocytes were isolated using previously published protocols (Collesi et al. 2008). Briefly, ventricles were dissected from P1 pups, minced in CBFHH (calcium and bicarbonate-free Hanks with Hepes) buffer. Subsequently, the minced ventricles were digested in CBFHH buffer containing 1.75 mg/ml of trypsin and 20 μg/ml of DNaseII (Sigma-Aldrich). Cells were preplated for 1 h (3 times) onto 100-mm primaria (Corning Life Sciences) dishes in culture medium containing 10% serum to remove fibroblasts. Unattached cardiomyocytes were plated at a desired density. […] After 12 h, the culture medium was changed and cells were subjected to the different treatments (SAG; 4 μg/mL and CyA; 5 μg/ml) and analyzed. For apoptotic pathway inhibition, neonatal cardiomyocytes were treated with cell permeable small molecule inhibitor (Z-VAD-FMK; R&D Systems) with or with SAG. For the EdU incorporation assay, cardiomyocytes were incubated with 20 μM EdU for 48 h and fixed using 4% PFA for 10 min at room temperature. […] For qPCR and FACS analysis, cells were harvested using trypsin and processed for further analysis. […] For the EdU incorporation assay, cardiomyocytes were incubated with 20 μM EdU for 48 h and fixed using 4% PFA for 10 min at room temperature.
Experiment [2] shares this test system. Description: Live/dead assay in cultured neonatal cardiomyocytes. It is filed as cell-based. The note with it: 48 h; n=3. As for the experimental part:
(§1) Ventricular cardiomyocytes were isolated using previously published protocols (Collesi et al. 2008). Briefly, ventricles were dissected from P1 pups, minced in CBFHH (calcium and bicarbonate-free Hanks with Hepes) buffer. Subsequently, the minced ventricles were digested in CBFHH buffer containing 1.75 mg/ml of trypsin and 20 μg/ml of DNaseII (Sigma-Aldrich). Cells were preplated for 1 h (3 times) onto 100-mm primaria (Corning Life Sciences) dishes in culture medium containing 10% serum to remove fibroblasts. Unattached cardiomyocytes were plated at a desired density. Using this protocol, we routinely obtained >85-90% cardiomyocytes (confirmed using immunohistochemical techniques and an alpha-actinin antibody). […] For apoptotic pathway inhibition, neonatal cardiomyocytes were treated with cell permeable small molecule inhibitor (Z-VAD-FMK; R&D Systems) with or with SAG. For the EdU incorporation assay, cardiomyocytes were incubated with 20 μM EdU for 48 h and fixed using 4% PFA for 10 min at room temperature. P7 cardiomyocytes were isolated using a similar protocol as that of the P1 cardiomyocyte isolation protocol with modifications including the perfusion based tissue digestion using collagenase type-2 enzyme solution. >95% rod-shaped binucleated cardiomyocytes were routinely obtained using this protocol. […]

Experiment [3] deals with HH signaling. Description: qPCR of HH pathway and cell cycle transcripts in neonatal cardiomyocytes. The note with it: for Gli1 expression (qPCR) / Gli3 expression (qPCR) / Mycn transcripts (qPCR): isolated mouse neonatal cardiomyocytes. It is filed as cell-based, mouse. As to the method:
(§2) RNA isolation and qPCR analysis from newt tissue was performed as previously described^5. For chamber based qPCR analysis, the regenerating heart including BA, AT and ventricle was harvested and rinsed in PBS to remove blood cells. Subsequently, the BA, AT and ventricle were collected from heart tissue (n=12) for further processing. RNA isolation from cultured cardiomyocytes was performed using a standard protocol as per the manufacturer's instructions. Total RNA was isolated using the miRVANA kit (Ambion) and cDNA was made using SuperScript […] kit (Invitrogen).
Briefly, ventricles were dissected from P1 pups, minced in CBFHH (calcium and bicarbonate-free Hanks with Hepes) buffer. […] Cells were preplated for 1 h (3 times) onto 100-mm primaria (Corning Life Sciences) dishes in culture medium containing 10% serum to remove fibroblasts. Unattached cardiomyocytes were plated at a desired density. […] For apoptotic pathway inhibition, neonatal cardiomyocytes were treated with cell permeable small molecule inhibitor (Z-VAD-FMK; R&D Systems) with or with SAG. For the EdU incorporation assay, cardiomyocytes were incubated with 20 μM EdU for 48 h and fixed using 4% PFA for 10 min at room temperature. […] For qPCR and FACS analysis, cells were harvested using trypsin and processed for further analysis. For the time-lapse microscopic experiments, isolated P7 mCherry+ cardiomyocytes were plated on glass-bottom petri dish coated with fibronectin. After 2 h of attachment, media was changed containing DMSO or SAG and the petri dish was placed in the environmental chamber for imaging. […] Briefly, the adult heart tissue was dissociated by perfusion of a collagenase type 2 enzyme solution. Isolated cardiomyocytes were cultured in 1% serum media in the presence of DMSO or SAG. For the EdU incorporation assay, cardiomyocytes were incubated with 20 μM EdU for 48 h and fixed using 4% PFA for 10 min at room temperature.

A further experiment has as its system P7 cardiomyocytes. Put plainly: Proliferation of isolated P7 cardiomyocytes (EdU incorporation, time-lapse microscopy). It is filed as cell-based, mouse. As for the experimental part:
Ventricular cardiomyocytes were isolated using previously published protocols (Collesi et al. 2008). Briefly, ventricles were dissected from P1 pups, minced in CBFHH (calcium and bicarbonate-free Hanks with Hepes) buffer. Subsequently, the minced ventricles were digested in CBFHH buffer containing 1.75 mg/ml of trypsin and 20 μg/ml of DNaseII (Sigma-Aldrich). Cells were preplated for 1 h (3 times) onto 100-mm primaria (Corning Life Sciences) dishes in culture medium containing 10% serum to remove fibroblasts. Unattached cardiomyocytes were plated at a desired density. Using this protocol, we routinely obtained >85-90% cardiomyocytes (confirmed using immunohistochemical techniques and an alpha-actinin antibody). […] For apoptotic pathway inhibition, neonatal cardiomyocytes were treated with cell permeable small molecule inhibitor (Z-VAD-FMK; R&D Systems) with or with SAG. For the EdU incorporation assay, cardiomyocytes were incubated with 20 μM EdU for 48 h and fixed using 4% PFA for 10 min at room temperature. P7 cardiomyocytes were isolated using a similar protocol as that of the P1 cardiomyocyte isolation protocol with modifications including the perfusion based tissue digestion using collagenase type-2 enzyme solution. >95% rod-shaped binucleated cardiomyocytes were routinely obtained using this protocol. For qPCR and FACS analysis, cells were harvested using trypsin and processed for further analysis. For the time-lapse microscopic experiments, isolated P7 mCherry+ cardiomyocytes were plated on glass-bottom petri dish coated with fibronectin. After 2 h of attachment, media was changed containing DMSO or SAG and the petri dish was placed in the environmental chamber for imaging. Adult cardiomyocyte isolation was performed (Mahmoud et al., 2013). Briefly, the adult heart tissue was dissociated by perfusion of a collagenase type 2 enzyme solution. Isolated cardiomyocytes were cultured in 1% serum media in the presence of DMSO or SAG. For the EdU incorporation assay, cardiomyocytes were incubated with 20 μM EdU for 48 h and fixed using 4% PFA for 10 min at room temperature.

Experiment [4] deals with HH signaling. Description: qPCR in P7 cardiomyocytes. It is filed as cell-based, mouse. The note with it: P7-isolated cardiomyocytes. As for the experimental part:
as §2
Ventricular cardiomyocytes were isolated using previously published protocols (Collesi et al. 2008). Briefly, ventricles were dissected from P1 pups, minced in CBFHH (calcium and bicarbonate-free Hanks with Hepes) buffer. Subsequently, the minced ventricles were digested in CBFHH buffer containing 1.75 mg/ml of trypsin and 20 μg/ml of DNaseII (Sigma-Aldrich). Cells were preplated for 1 h (3 times) onto 100-mm primaria (Corning Life Sciences) dishes in culture medium containing 10% serum to remove fibroblasts. Unattached cardiomyocytes were plated at a desired density. Using this protocol, we routinely obtained >85-90% cardiomyocytes (confirmed using immunohistochemical techniques and an alpha-actinin antibody). […]

The subject of experiment [5] is adult mouse cardiomyocytes. Put plainly: EdU incorporation in isolated adult cardiomyocytes. The format is cell-based. The note with it: n=3, p<0.05. As to the method: as §1
The test system of the next experiment is day-60 hiPSC-CMs. Description: Proliferation of day-60 hiPSC-derived cardiomyocytes (EdU, Ki67). It is filed as cell-based, human. The note with it: 48 h, n=3, p<0.01. As for the experimental part:
The media was then changed with RPMI/B27 minus insulin and BMP4 and FGF from d1-d2. On d3, the medium was changed with RPMI/B27 minus insulin and IWP-4. The differentiated cells were maintained in RPMI/B27 with insulin media from d5-d60. […] Immunohistochemical analysis was performed as described previously.

A further experiment relates to regenerating newt heart. As to conditions: continuous blockade of HH signals, CyA 2 μg/mL in aquarium water daily; n=8, p<0.05.

Where a SMILES comes first, the peptide text is derived from it. The star is where a group is joined. Cbz = O=C(OCc1ccccc1)*; CH2F = FC*

Protocol for regenerating newt heart: Adult red-spotted newts, Notophthalmus viridescens, were housed as described in Singh et al. (2012). For heart resection surgery, adult newts were anesthetized in 0.1% MS-222 solution for 10 min. Each newt was placed in a supine position under a stereomicroscope. The outer skin was wiped using 70% ethanol-chlorhexidine solution and the pericardial sac was opened to expose the heart. The apex of the ventricle was resected (˜25-30%) using iricdectomy scissors. Following resection, the blood flow was controlled by the formation of the blood clot. The resected heart was maneuvered carefully into the pericardial sac and sutured using 8.0 ethilon monofilament sutures. Following resection surgery, newts were allowed to recover in an isolated tank containing sulfmerazine antibiotic solution and later placed in their designated aquariums. The resected ventricular mass was measured using a Sartorius weighing balance. […] CyA-mediated inhibition of HH signaling was achieved by daily treatment of the resected newts at 2 μg/mL diluted in the aquarium water. At specified time periods, animals were sacrificed and tissues were collected for further processing. For EdU labelling, the resected newts were injected intraperitoneally (i.p.) with 100 μg/gm of EdU for a 7 day period prior to sacrifice and harvested for immunohistochemical analysis. […]

With `c1ccc2c(Oc3nc(Nc4ccc(N5CCOCC5)cc4)c4ncn(C5CCCCC5)c4n3)cccc2c1` [Purmorphamine], the “cardiomyocyte proliferation (Actinin+-EdU+, immunohistochemical images)” value in experiment [1] (isolated neonatal cardiomyocytes pulsed with EdU, FIG. 20) was “promotes cardiomyocyte proliferation”.
For `CNC1CCC(N(Cc2cccc(-c3ccncc3)c2)C(=O)c2sc3ccccc3c2Cl)CC1` (stereo not drawn) [SAG], in experiment [1] (SAG 4 μg/mL, EdU 48 h, n=4, p<0.05), the “increase in α-Actinin+-EdU+ cells compared to controls” value is listed as 2.5 fold. Besides, the “increased cardiomyocyte proliferation, FACS analysis of α-Actinin+-EdU+ population” value in experiment [1] (n=3, p<0.05) is listed as 2.5 fold. In addition, in experiment [1] (n=3), the “EdU+ cardiomyocytes” value was “comparable increase” and the “Ki67+-Actinin+ cells” value is “increased number”. The “cardiomyocyte proliferation (α-Actinin+-EdU+)” value in experiment [1] (serum-free conditions, n=3, p<0.05) is “increased cardiomyocyte proliferation”. The “number of cultured neonatal cardiomyocytes” value in experiment [1] (various concentrations) is listed as “dose-dependent increase”. In addition, in experiment [2], the “live/dead assay versus control” value is reported as “No difference”. Moreover, in the experiment with HH signaling [3] (HH signaling activation), the “Ptc1, Ccnd2, Ccnd1 and Ccne1 transcripts (qPCR)” value is reported as “induction of cell cycle kinetics”. In addition, in the experiment on HH signaling [3], the “Gli1 expression (qPCR)” value is “induced”, the “Gli3 expression (qPCR)” value is recorded as “reduced” and the “Mycn transcripts (qPCR)” value is given as “increased”. Further, the “levels of caspase-3 transcripts (qPCR)” value with HH signaling [3] (versus control, data not shown) was “unaltered”. Moreover, the “α-Actinin+-EdU+ cardiomyocytes” value with P7 cardiomyocytes (P7 cardiomyocytes, n=4) is given as “increased number”. For the same compound, the “increase in number of mono-, bi-, and multi-nucleated cardiomyocytes” value with P7 cardiomyocytes (P7 cardiomyocytes, n=4, p<0.05) is reported as approximately 3 fold. The “dividing αMHC-mCherry+ P7 cardiomyocytes (time-lapse microscopy)” value in the experiment on P7 cardiomyocytes (none found in DMSO control) is listed as “multiple dividing”. In the experiment on HH signaling [4], the “expression of Cdkn1b (p27) (qPCR)” value was “reduced expression”; the “expression of Ptc1, Ccne1 and Ccnd2 (qPCR)” value is listed as “increased expression”. In addition, the “α-Actinin+-EdU+ cardiomyocytes” value in experiment [5] was “increased number”. For the same compound, in the experiment with day-60 hiPSC-CMs, the “increased α-Actinin+-EdU+ cardiomyocytes” value amounted to 2 fold and the “increased α-Actinin+-Ki67+ cardiomyocytes” value is on record as approximately 3 fold.
Take `COC(=O)C[C@H](NC(=O)[C@H](C)NC(=O)[C@@H](NC(=O)OCc1ccccc1)C(C)C)C(=O)CF` [pan-caspase inhibitor, Z-VAD-FMK] (Cbz-Val-Ala-Asp(OMe)-CH2F): in experiment [1] (n=3), the “EdU+ cardiomyocytes” value is on record as “did not result in any change”.
In the case of `CC1=C2C[C@H]3[C@@H](CC=C4C[C@@H](O)CC[C@@]43C)[C@@H]2CC[C@]12O[C@@H]1C[C@H](C)CN[C@H]1[C@H]2C` [CyA, Cyclopamine], in experiment [1] (n=3), the “Ki67+-Actinin+ cells” value was “not detected”. Further, in the experiment with HH signaling [3], the “Gli1 expression (qPCR)” value is “reduced”, the “Gli3 expression (qPCR)” value was “increased” and the “Mycn transcripts (qPCR)” value was “reduced expression”. Besides, in the experiment with regenerating newt heart, the “heart regeneration following injury” value is “complete ablation of heart regeneration and induction of scar formation”.
